Source: ChEMBL document CHEMBL3871306, “Design and synthesis of novel N-sulfonyl-2-indoles that behave as 5-HT6 receptor ligands with significant selectivity for D3 over D2 receptors” (Bioorg Med Chem, 2017)

Key:
D(3) dopamine receptor = D(3) dopamine receptor (Homo sapiens, UniProt P35462); assay: Displacement of [3H]-methyl-spiperone from human dopamine D3 receptor expressed in CHO cell membranes after 1 hr by liquid scintillation counting
[1] = biological target: 5-hydroxytryptamine receptor 6 (Homo sapiens, UniProt P50406); assay: Displacement of [3H]-LSD from human 5-HT6R expressed in CHO cell membranes by radioligand binding assay
D(2) dopamine receptor [2] = biological target: T1, D(2) dopamine receptor (Homo sapiens, UniProt P14416); assay: Displacement of [3H]-methyl-spiperone from human dopamine D2L receptor expressed in HEK293 cell membranes at […] after 1 hr by radioligand binding assay
D(2) dopamine receptor [3] = biological target: T1, D(2) dopamine receptor; assay: Displacement of [3H]-methyl-spiperone from human dopamine D2L receptor expressed in HEK293 cell membranes after 1 hr by radioligand binding assay

5-hydroxytryptamine receptor 6, sequence (P50406 whole entry): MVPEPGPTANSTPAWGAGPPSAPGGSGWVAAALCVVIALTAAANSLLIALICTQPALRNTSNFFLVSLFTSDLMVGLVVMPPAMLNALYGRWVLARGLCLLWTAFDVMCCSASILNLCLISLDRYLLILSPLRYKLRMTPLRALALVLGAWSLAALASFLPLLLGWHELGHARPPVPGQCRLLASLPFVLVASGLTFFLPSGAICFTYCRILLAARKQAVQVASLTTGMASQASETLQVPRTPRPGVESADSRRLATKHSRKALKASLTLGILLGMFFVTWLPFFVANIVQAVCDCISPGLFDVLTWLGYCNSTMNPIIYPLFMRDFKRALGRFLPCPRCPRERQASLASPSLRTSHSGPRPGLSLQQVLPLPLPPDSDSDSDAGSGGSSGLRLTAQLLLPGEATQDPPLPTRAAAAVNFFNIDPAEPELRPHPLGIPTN
T1 sequence (P14416 whole entry): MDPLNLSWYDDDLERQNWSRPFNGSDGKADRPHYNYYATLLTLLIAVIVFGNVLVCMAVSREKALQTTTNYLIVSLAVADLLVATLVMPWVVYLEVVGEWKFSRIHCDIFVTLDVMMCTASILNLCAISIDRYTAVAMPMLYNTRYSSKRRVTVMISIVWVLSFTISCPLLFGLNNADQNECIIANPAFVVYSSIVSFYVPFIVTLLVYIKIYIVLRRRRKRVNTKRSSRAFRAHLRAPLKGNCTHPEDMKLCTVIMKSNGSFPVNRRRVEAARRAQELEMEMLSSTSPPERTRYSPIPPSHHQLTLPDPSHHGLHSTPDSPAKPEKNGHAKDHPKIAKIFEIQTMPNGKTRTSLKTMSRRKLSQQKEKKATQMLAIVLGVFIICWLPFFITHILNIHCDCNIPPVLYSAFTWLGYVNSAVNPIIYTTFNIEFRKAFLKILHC
D(3) dopamine receptor, sequence (P35462 whole entry): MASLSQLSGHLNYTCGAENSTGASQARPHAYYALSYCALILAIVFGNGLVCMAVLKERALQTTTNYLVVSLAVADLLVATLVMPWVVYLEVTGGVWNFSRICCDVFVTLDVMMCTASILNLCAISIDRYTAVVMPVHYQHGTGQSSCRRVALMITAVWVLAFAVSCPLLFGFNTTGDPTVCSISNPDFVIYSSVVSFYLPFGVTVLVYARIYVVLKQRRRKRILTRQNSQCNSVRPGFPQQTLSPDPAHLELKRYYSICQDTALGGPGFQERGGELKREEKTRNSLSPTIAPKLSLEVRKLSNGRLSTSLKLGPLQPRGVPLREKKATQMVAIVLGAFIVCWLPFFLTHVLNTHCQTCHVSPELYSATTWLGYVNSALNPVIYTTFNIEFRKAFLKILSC

| SMILES | Ki (D(3) dopamine receptor) [nM] | Ki [1] [nM] | inhibition (D(2) dopamine receptor [2]) [%] | Ki (D(2) dopamine receptor [3]) [nM] |
| --- | --- | --- | --- | --- |
| CC(=O)Nc1ccc(CCN(C)CC2Cc3ccc4c(ccn4S(=O)(=O)c4ccccc4)c32)cc1 (centres undefined) | 501 | 79.4 | – | 251 |
| O=S(=O)(c1ccccc1)n1ccc2c3c(ccc21)[C@H]1CCNCC[C@@H]31 (relative stereo) | 1000 | 50.1 | – | 794 |
| CN[C@@H]1c2ccc3c(ccn3S(=O)(=O)c3ccccc3)c2[C@@H]1CCO | > 10000 | 25.1 | – | > 10000 |
| CN[C@H]1c2c(ccc3c2ccn3S(=O)(=O)c2ccccc2)[C@@H]1CCO (relative stereo) | 1260 | 200 | – | 15800 |
| CNCC1Cc2ccc3c(ccn3S(=O)(=O)c3cccc4ccccc34)c21 (centres undefined) | 251 | 1 | – | 1000 |
| CNCC1Cc2ccc3c(ccn3S(=O)(=O)c3ccccc3)c21 (centres undefined) | 1260 | 1.58 | – | 2000 |
| CNCC1Cc2cc3ccn(S(=O)(=O)c4cccc5ccccc45)c3cc21 (centres undefined) | 794 | 1 | – | 2510 |
| O=S(=O)(c1ccccc1)n1ccc2cc3c(cc21)[C@H]1CCNCC[C@@H]31 | 3160 | 158 | – | > 10000 |

Other lines, results leading:

| Ki (D(3) dopamine receptor) [nM] | Ki [1] [nM] | inhibition (D(2) dopamine receptor [2]) [%] | Ki (D(2) dopamine receptor [3]) [nM] | SMILES |
| --- | --- | --- | --- | --- |
| 1260 | 12.6 | 22 | – | CN(C)[C@@H]1c2cc3ccn(S(=O)(=O)c4ccccc4)c3cc2[C@H]1CCO (relative stereo) |
| 126 | 316 | 19 | – | CN(C)[C@H]1c2cc3c(ccn3S(=O)(=O)c3ccccc3)cc2[C@@H]1CCO (relative stereo) |
| 2000 | 3.98 | – | 15800 | CN[C@@H]1c2cc3ccn(S(=O)(=O)c4ccccc4)c3cc2[C@H]1CCO (relative stereo) |
| 1260 | 158 | – | > 10000 | CN[C@H]1c2ccc3c(ccn3S(=O)(=O)c3ccccc3)c2[C@@H]1CCO (relative stereo) |
| 1260 | 10 | 30 | – | CN[C@H]1c2cc3ccn(S(=O)(=O)c4ccccc4)c3cc2[C@H]1CCO (relative stereo) |
| 251 | 158 | – | 6310 | CN[C@H]1c2cc3c(ccn3S(=O)(=O)c3ccccc3)cc2[C@@H]1CCO (relative stereo) |
| > 10000 | 7.94 | – | > 10000 | CN[C@H]1c2c(ccc3c2ccn3S(=O)(=O)c2ccccc2)[C@H]1CCO (relative stereo) |
| 631 | 316 | 20 | – | CN(C)[C@@H]1c2cc3c(ccn3S(=O)(=O)c3ccccc3)cc2[C@@H]1CCO (relative stereo) |
| 1000 | 126 | – | > 10000 | CN[C@@H]1c2cc3c(ccn3S(=O)(=O)c3ccccc3)cc2[C@@H]1CCO (relative stereo) |
| 398 | 39.8 | – | > 10000 | CN(C)[C@H]1c2cc3ccn(S(=O)(=O)c4ccccc4)c3cc2[C@H]1CCO (relative stereo) |
